This is an account of results in ChEMBL document CHEMBL1667750, “Synthesis and biological activity of 7H-benzo[4,5]indolo[2,3-b]-quinoxaline derivatives” (Eur J Med Chem, 2011).

The subject of one data set is L929. The experiment in a line: Decrease in interferon inducing activity in VSV infected in mouse L929 cells at 1.1 uM. Format: functional, cell-based.
A further data set deals with Calf thymus DNA. The experiment in a line: Binding affinity to calf thymus DNA by ethidium bromide displacement assay. Format: nucleic-acid assay, Bos taurus. The settings on record: for logKa: Bos taurus.
For data set [1], the system named is Vesicular stomatitis virus. Kind of data set: Antiviral activity against VSV infected in mouse L929 cells assessed as protection against virus-induced cytopathic effect treated 24 hrs before viral infection at 6.2 uM. The class given is functional.
For data set [2], the system named is Vesicular stomatitis virus. Kind of data set: Antiviral activity against VSV infected in mouse L929 cells assessed as protection against virus-induced cytopathic effect treated immediately after viral infection at 6.2 uM. Format: functional. (In general: Protection from cytopathic effect is a common read-out in antiviral testing.)
Data set [3] relates to Vesicular stomatitis virus. The experiment in a line: Antiviral activity against VSV infected in mouse L929 cells assessed as protection against virus-induced cytopathic effect treated 24 hrs before viral infection at 13 uM. The class given is functional.
The subject of data set [4] is Vesicular stomatitis virus. The experiment in a line: Antiviral activity against VSV infected in mouse L929 cells assessed as protection against virus-induced cytopathic effect treated immediately after viral infection at 12.5 uM. Format: functional.
The subject of data set [5] is Vesicular stomatitis virus. Kind of data set: Antiviral activity against VSV infected in mouse L929 cells assessed as protection against virus-induced cytopathic effect treated 24 hrs before viral infection at 3.1 uM. Format: functional.
For data set [6], the system named is Vesicular stomatitis virus. The experiment in a line: Antiviral activity against VSV infected in mouse L929 cells assessed as protection against virus-induced cytopathic effect treated immediately after viral infection at 5.5 uM. Format: functional.
For data set [7], the system named is Vesicular stomatitis virus. The experiment in a line: Antiviral activity against VSV infected in mouse L929 cells assessed as protection against virus-induced cytopathic effect treated 24 hrs before viral infection at 0.2 uM. The class given is functional.
For data set [8], the system named is Vesicular stomatitis virus. Kind of data set: Antiviral activity against VSV infected in mouse L929 cells assessed as protection against virus-induced cytopathic effect treated immediately after viral infection at 21.4 uM. The class given is functional.
Data set [9] can be described thus: Cytotoxicity against mouse L929 cells. The class given is cell-based.
Data set [10] concerns Vesicular stomatitis virus. The experiment in a line: Antiviral activity against VSV infected in mouse L929 cells assessed as protection against virus-induced cytopathic effect treated 24 hrs before viral infection at 53 uM. Format: functional.
Data set [11] has as its system Vesicular stomatitis virus. Kind of data set: Antiviral activity against VSV infected in mouse L929 cells assessed as protection against virus-induced cytopathic effect treated 24 hrs before viral infection at 30 uM. Format: functional.
Data set [12] relates to Vesicular stomatitis virus. The experiment in a line: Antiviral activity against VSV infected in mouse L929 cells assessed as protection against virus-induced cytopathic effect treated immediately after viral infection at 15 uM. Format: functional.
Data set [13] relates to Vesicular stomatitis virus. The experiment in a line: Antiviral activity against VSV infected in mouse L929 cells assessed as protection against virus-induced cytopathic effect treated immediately after viral infection at 6.7 uM. The class given is functional.
The subject of data set [14] is Vesicular stomatitis virus. Kind of data set: Antiviral activity against VSV infected in mouse L929 cells assessed as protection against virus-induced cytopathic effect treated 24 hrs before viral infection at 110 uM. Format: functional.
The test system of data set [15] is Vesicular stomatitis virus. Kind of data set: Antiviral activity against VSV infected in mouse L929 cells assessed as protection against virus-induced cytopathic effect treated immediately after viral infection at 27.5 uM. Format: functional.
Data set [16] has as its system Vesicular stomatitis virus. The experiment in a line: Antiviral activity against VSV infected in mouse L929 cells assessed as protection against virus-induced cytopathic effect treated 24 hrs before viral infection at 3 uM. The class given is functional.
Data set [17] has as its system Vesicular stomatitis virus. Kind of data set: Antiviral activity against VSV infected in mouse L929 cells assessed as protection against virus-induced cytopathic effect treated immediately after viral infection at 21.3 uM. Format: functional.
The subject of data set [18] is Vesicular stomatitis virus. The experiment in a line: Antiviral activity against VSV infected in mouse L929 cells assessed as protection against virus-induced cytopathic effect treated immediately after viral infection at 50 uM. The class given is functional.
Data set [19] has as its system Vesicular stomatitis virus. Kind of data set: Antiviral activity against VSV infected in mouse L929 cells assessed as protection against virus-induced cytopathic effect treated 24 hrs before viral infection at 113 uM. Format: functional.
Data set [20] concerns Vesicular stomatitis virus. The experiment in a line: Antiviral activity against VSV infected in mouse L929 cells assessed as protection against virus-induced cytopathic effect treated immediately after viral infection at 7.1 uM. The class given is functional.
Data set [21] concerns Vesicular stomatitis virus. Kind of data set: Antiviral activity against VSV infected in mouse L929 cells assessed as protection against virus-induced cytopathic effect treated immediately after viral infection at 25 uM. The class given is functional.

Activity calls are given as the source filed them. No cut-off for these calls is given here.

The term pIC50 denotes the negative decadic logarithm of the IC50, by convention in mol/L. Low values mean a high IC50, high ones a low IC50. A word on the Emax: it is the maximal effect, on the per cent scale that the assay sets. Regarding `CC1CCCCN1CCn1c2ccccc2c2nc3ccccc3nc21` (stereo not drawn), the outcome in the data set with L929 was Active. In the data set with Calf thymus DNA, this molecule yielded a pIC50 of 4.08 and a logKa of 6.19. The maximum response (Emax) at 6.2 µM in data set [1] worked out at 90%. For the same molecule, in [2], the Emax at 6.2 µM is 77%.
As to `CC1CCN(CCn2c3ccccc3c3nc4ccccc4nc32)CC1`, in the data set with L929, the outcome was Active. In the data set on Calf thymus DNA, this molecule registered a negative logarithm of the IC50 (pIC50) of 3.88 and a logKa of 5.98. Also, the maximum response (Emax) at 13 µM in [3] is 90%. Moreover, the maximal effect (Emax) at 12.5 µM in [4] is 50%.
Regarding `c1ccc2nc3c(nc2c1)c1ccccc1n3CCN1CCCCC1`, in the data set with L929, the result was Active. In the data set on Calf thymus DNA, the negative logarithm of the IC50 (pIC50) came to 3.91 and the logKa is 6.01. Besides, the Emax at 3.1 µM in data set [5] turned out to be 90%. In [2], the Emax at 6.2 µM is 75%.
Turning to `CN1CCN(CCn2c3ccccc3c3nc4ccccc4nc32)CC1`, the outcome in the data set on L929 was Active. In the data set with Calf thymus DNA, the pIC50 is listed as 3.77 and the logKa was found to be 5.87. In data set [3], the maximum response (Emax) at 13 µM stood at 85%. In addition, in [4], the Emax at 12.5 µM worked out at 100%.
Regarding `c1ccc2c(c1)ccc1c2c2nc3ccccc3nc2n1CCN1CCOCC1`, the Emax at 5.5 µM in data set [6] came to 50%. In the data set on L929, the outcome was Active. In the data set with Calf thymus DNA, the negative-log IC50 (pIC50) is 4.84 and the logKa is 6.94. Besides, the Emax at 0.2 µM in data set [7] stood at 10%.
Usually CC50 stands for the concentration giving 50% cytotoxicity. Lower therefore signals greater toxicity to the cells. Take `CC1CCN(CCn2c3ccc4ccccc4c3c3nc4ccccc4nc32)CC1`: the Emax at 21.4 µM in [8] was 51%. In addition, in the data set on L929, the result was Active. In the data set with Calf thymus DNA, this molecule registered a pIC50 of 4.48 and a logKa of 6.58. In addition, the CC50 in data set [9] is above 214 µM. The Emax at 53 µM in data set [10] came out at 30%.
For the molecule `CCCN(CCC)CCn1c2ccccc2c2nc3ccccc3nc21`, in the data set with L929, the result was Active. In the data set on Calf thymus DNA, this molecule yielded a pIC50 of 3.99 and a logKa of 6.09. The Emax at 13 µM in [3] was 90%. Moreover, the Emax at 12.5 µM in data set [4] stood at 75%.
Regarding `CN(C)CCn1c2ccc3ccccc3c2c2nc3ccccc3nc21`, the result in the data set with L929 was Active. Also, in the data set on Calf thymus DNA, the pIC50 was 4.84 and the logKa came out at 6.94. Further, it took 49.9 µM to reach half-maximal cytotoxicity in data set [9] (CC50). For the same molecule, the Emax at 30 µM in [11] turned out to be 21%. The maximum response (Emax) at 15 µM in data set [12] came out at 45%.
For `CN1CCN(CCn2c3ccc4ccccc4c3c3nc4ccccc4nc32)CC1`, in the data set with L929, the outcome was Active. Further, in the data set with Calf thymus DNA, the pIC50 worked out at 4.84 and the logKa is 6.94. The molecule also came in with a CC50 in data set [9] of 21.4 µM. Further, the Emax at 13 µM in data set [3] is 17%. Moreover, in [13], the Emax at 6.7 µM came to 80%.
On to `c1ccc2c(c1)ccc1c2c2nc3ccccc3nc2n1CCN1CCCCC1`, for which the result in the data set with L929 was Active. In addition, in the data set on Calf thymus DNA, the pIC50 was 4.51 and the logKa is 6.61. The molecule further returned a CC50 in data set [9] above 221 µM. Also, the Emax at 110 µM in data set [14] amounted to 20%. The Emax at 27.5 µM in [15] is 55%.
As to `CCCN(CCC)CCn1c2ccc3ccccc3c2c2nc3ccccc3nc21`, the outcome in the data set on L929 was Active. In the data set with Calf thymus DNA, this molecule yielded a pIC50 of 4.8 and a logKa of 6.91. Further, in data set [9], the CC50 was above 42.6 µM. For the same molecule, the Emax at 3 µM in data set [16] stood at 16%. In data set [17], the Emax at 21.3 µM was found to be 48%.
`CCN(CC)CCn1c2ccccc2c2nc3ccccc3nc21`: the outcome in the data set with L929 was Active. Further, in the data set with Calf thymus DNA, the pIC50 stood at 3.97 and the logKa is 6.07. Further, the Emax at 6.2 µM in data set [1] came to 90%. The Emax at 12.5 µM in data set [4] is 100%.
On to `CCCCN(CC)CCn1c2ccccc2c2nc3ccccc3nc21`, for which, in the data set on L929, the outcome was Active. For the same molecule, in the data set on Calf thymus DNA, the pIC50 worked out at 3.91 and the logKa turned out to be 6.01. In addition, the Emax at 3.1 µM in data set [5] came to 50%. Besides, the Emax at 12.5 µM in data set [4] was determined as 50%.
With `CC1CCCCN1CCn1c2ccc3ccccc3c2c2nc3ccccc3nc21` (stereo not drawn), the result with L929 was Active. In the data set on Calf thymus DNA, this molecule came in with a pIC50 of 4.73 and a logKa of 6.83. The same molecule gave a CC50 in data set [9] of 113 µM. Further, the Emax at 53 µM in [10] came out at 20%. Also, the Emax at 6.7 µM in data set [13] amounted to 50%.
Turning to `c1ccc2nc3c(nc2c1)c1ccccc1n3CCN1CCCCCC1`, the result with L929 was Active. Besides, in the data set with Calf thymus DNA, the pIC50 came to 4.06 and the logKa was 6.16. Besides, the Emax at 6.2 µM in data set [1] came out at 90%. Also, the Emax at 50 µM in [18] is 100%.
Regarding `c1ccc2nc3c(nc2c1)c1ccccc1n3CCN1CCCC1`, the outcome in the data set on L929 was Active. For the same molecule, in the data set with Calf thymus DNA, the pIC50 is given as 3.95 and the logKa turned out to be 6.05. In [5], the Emax at 3.1 µM was 85%. Further, the Emax at 12.5 µM in data set [4] was 100%.
In the case of `c1ccc2nc3c(nc2c1)c1ccccc1n3CCN1CCOCC1`, the result in the data set with L929 was Active. In the data set with Calf thymus DNA, the pIC50 is 3.78 and the logKa stood at 5.89. The same molecule returned a CC50 in [9] of 1070 µM. The maximal effect (Emax) at 13 µM in data set [3] was found to be 85%. Further, the Emax at 6.2 µM in data set [2] was found to be 30%.
As to `CCN(CC)CCn1c2ccc3ccccc3c2c2nc3ccccc3nc21`, the outcome in the data set with L929 was Active. In addition, in the data set on Calf thymus DNA, the pIC50 stood at 4.69 and the logKa was 6.79. Besides, in data set [9], the half-maximal cytotoxic concentration (CC50) amounted to 180 µM. In data set [19], the maximal response (Emax) at 113 µM is 14%. In addition, in data set [20], the maximal effect (Emax) at 7.1 µM was found to be 56%.
Consider `CN(C)CCn1c2ccccc2c2nc3ccccc3nc21`, for which the outcome in the data set with L929 was Active. In the data set on Calf thymus DNA, this molecule came in with a pIC50 of 3.83 and a logKa of 5.93. Further, in data set [5], the Emax at 3.1 µM is 75%. For the same molecule, the Emax at 25 µM in data set [21] is 100%.
For `CCCCN(C)CCn1c2ccccc2c2nc3ccccc3nc21`, in the data set with L929, the outcome was Active. In the data set on Calf thymus DNA, this molecule gave a pIC50 of 3.82 and a logKa of 5.93. In addition, the Emax at 3.1 µM in [5] is 75%. In addition, in data set [21], the Emax at 25 µM came to 80%.
